Results as given in ChEMBL document CHEMBL1671626, “In vitro profiling of ceftaroline against a collection of recent bacterial clinical isolates from across the United States” (2008).
≈ marks a conversion by molar mass, not a printed value.

Experiments:
Assay type in all cases: functional
[1] = tested on: Staphylococcus aureus; experiment: Antibacterial activity against methicillin-susceptible Staphylococcus aureus assessed as susceptible isolates by CLSI M7-A7 broth microdilution method
[2] = tested on: Staphylococcus aureus; experiment: Antibacterial activity against coagulase-negative and oxacillin-resistant Staphylococcus aureus assessed as susceptible isolates by CLSI M7-A7 broth microdilution method
[3] = tested on: Staphylococcus aureus; experiment: Antibacterial activity against methicillin-resistant Staphylococcus aureus by CLSI M7-A7 broth microdilution method
[4] = tested on: Enterococcus faecium; experiment: Antibacterial activity against vancomycin-resistant Enterococcus faecium by CLSI M7-A7 broth microdilution method
[5] = tested on: Streptococcus pyogenes; experiment: Antibacterial activity against erythromycin-susceptible Streptococcus pyogenes assessed as susceptible isolates by CLSI M7-A7 broth microdilution method
[6] = tested on: Streptococcus viridans; experiment: Antibacterial activity against penicillin-susceptible Streptococcus viridans assessed as susceptible isolates by CLSI M7-A7 broth microdilution method
[7] = tested on: Staphylococcus aureus; experiment: Antibacterial activity against methicillin-resistant Staphylococcus aureus assessed as susceptible isolates by CLSI M7-A7 broth microdilution method
[8] = tested on: Streptococcus pneumoniae; experiment: Antibacterial activity against penicillin-resistant Streptococcus pneumoniae by CLSI M7-A7 broth microdilution method
[9] = tested on: Streptococcus pyogenes; experiment: Antibacterial activity against erythromycin-nonsusceptible Streptococcus pyogenes by CLSI M7-A7 broth microdilution method
[10] = tested on: Streptococcus viridans; experiment: Antibacterial activity against penicillin-nonsusceptible Streptococcus viridans by CLSI M7-A7 broth microdilution method
[11] = tested on: Staphylococcus aureus; experiment: Antibacterial activity against coagulase-negative and oxacillin-susceptible Staphylococcus aureus by CLSI M7-A7 broth microdilution method
[12] = tested on: Streptococcus pyogenes; experiment: Antibacterial activity against erythromycin-nonsusceptible Streptococcus pyogenes assessed as susceptible isolates by CLSI M7-A7 broth microdilution method
[13] = tested on: Staphylococcus aureus; experiment: Antibacterial activity against methicillin-susceptible Staphylococcus aureus by CLSI M7-A7 broth microdilution method
[14] = tested on: Staphylococcus aureus; experiment: Antibacterial activity against coagulase-negative and oxacillin-resistant Staphylococcus aureus by CLSI M7-A7 broth microdilution method
[15] = tested on: Enterococcus faecalis; experiment: Antibacterial activity against vancomycin-resistant Enterococcus faecalis by CLSI M7-A7 broth microdilution method
[16] = tested on: Streptococcus agalactiae; experiment: Antibacterial activity against erythromycin-nonsusceptible Streptococcus agalactiae assessed as susceptible isolates by CLSI M7-A7 broth microdilution method
[17] = tested on: Streptococcus viridans; experiment: Antibacterial activity against penicillin-nonsusceptible Streptococcus viridans assessed as susceptible isolates by CLSI M7-A7 broth microdilution method
[18] = tested on: Enterococcus faecalis; experiment: Antibacterial activity against vancomycin-resistant Enterococcus faecalis assessed as resistant isolates by CLSI M7-A7 broth microdilution method
[19] = tested on: Streptococcus viridans; experiment: Antibacterial activity against penicillin-nonsusceptible Streptococcus viridans assessed as resistant isolates by CLSI M7-A7 broth microdilution method
[20] = tested on: Streptococcus agalactiae; experiment: Antibacterial activity against erythromycin-susceptible Streptococcus agalactiae assessed as susceptible isolates by CLSI M7-A7 broth microdilution method
[21] = tested on: Streptococcus pyogenes; experiment: Antibacterial activity against erythromycin-susceptible Streptococcus pyogenes by CLSI M7-A7 broth microdilution method
[22] = tested on: Enterococcus faecium; experiment: Antibacterial activity against vancomycin-resistant Enterococcus faecium assessed as resistant isolates by CLSI M7-A7 broth microdilution method
[23] = tested on: Enterococcus faecalis; experiment: Antibacterial activity against vancomycin-susceptible Enterococcus faecalis by CLSI M7-A7 broth microdilution method
[24] = tested on: Enterococcus faecalis; experiment: Antibacterial activity against vancomycin-susceptible Enterococcus faecalis assessed as susceptible isolates by CLSI M7-A7 broth microdilution method
[25] = tested on: Streptococcus agalactiae; experiment: Antibacterial activity against erythromycin-nonsusceptible Streptococcus agalactiae by CLSI M7-A7 broth microdilution method
[26] = tested on: Staphylococcus aureus; experiment: Antibacterial activity against coagulase-negative and oxacillin-susceptible Staphylococcus aureus assessed as susceptible isolates by CLSI M7-A7 broth microdilution method
[27] = tested on: Streptococcus agalactiae; experiment: Antibacterial activity against erythromycin-susceptible Streptococcus agalactiae by CLSI M7-A7 broth microdilution method
[28] = tested on: Streptococcus viridans; experiment: Antibacterial activity against penicillin-susceptible Streptococcus viridans by CLSI M7-A7 broth microdilution method
[29] = tested on: Streptococcus pneumoniae; experiment: Antibacterial activity against penicillin-susceptible Streptococcus pneumoniae by CLSI M7-A7 broth microdilution method
[30] = tested on: Enterococcus faecium; experiment: Antibacterial activity against vancomycin-resistant Enterococcus faecium assessed as susceptible isolates by CLSI M7-A7 broth microdilution method
[31] = tested on: Enterococcus faecalis; experiment: Antibacterial activity against vancomycin-susceptible Enterococcus faecalis assessed as resistant isolates by CLSI M7-A7 broth microdilution method
[32] = tested on: Streptococcus viridans; experiment: Antibacterial activity against penicillin-susceptible Streptococcus viridans assessed as resistant isolates by CLSI M7-A7 broth microdilution method
[33] = tested on: Streptococcus pneumoniae; experiment: Antibacterial activity against penicillin-susceptible Streptococcus pneumoniae assessed as susceptible isolates by CLSI M7-A7 broth microdilution method
[34] = tested on: Pasteurella multocida; experiment: Antibacterial activity against Pasteurella multocida by CLSI M7-A7 broth microdilution method
[35] = tested on: Moraxella catarrhalis; experiment: Antibacterial activity against beta lactamase-positive Moraxella catarrhalis by CLSI M7-A7 broth microdilution method

Compound: CCCCCCCCCC(=O)N[C@@H](Cc1c[nH]c2ccccc12)C(=O)N[C@H](CC(N)=O)C(=O)N[C@@H](CC(=O)O)C(=O)N[C@@H]1C(=O)NCC(=O)N[C@@H](CCCN)C(=O)N[C@@H](CC(=O)O)C(=O)N[C@H](C)C(=O)N[C@@H](CC(=O)O)C(=O)NCC(=O)N[C@H](CO)C(=O)N[C@@H]([C@H](C)CC(=O)O)C(=O)N[C@@H](CC(=O)c2ccccc2N)C(=O)O[C@@H]1C
- Activity [1]: 99.4%
- Activity [2]: 99.7%
- MIC50 [3]: 0.25 µg/mL (≈ 0.154 µM)
- MIC90 [3]: 0.5 µg/mL (≈ 0.309 µM)
- MIC50 [4]: 2 µg/mL (≈ 1.23 µM)
- MIC90 [4]: 4 µg/mL (≈ 2.47 µM)
- Activity [5]: 100%
- Activity [6]: 100%
- Activity [7]: 99.2%
- MIC50 [8]: 0.06 µg/mL (≈ 0.037 µM)
- MIC90 [8]: 0.12 µg/mL (≈ 0.074 µM)
- MIC [9]: ≤ 0.03 µg/mL
- MIC50 [9]: ≤ 0.03 µg/mL
- MIC90 [9]: 0.25 µg/mL (≈ 0.154 µM)
- MIC50 [10]: 0.25 µg/mL (≈ 0.154 µM)
- MIC90 [10]: 0.5 µg/mL (≈ 0.309 µM)
- MIC50 [11]: 0.25 µg/mL (≈ 0.154 µM)
- MIC90 [11]: 0.5 µg/mL (≈ 0.309 µM)
- Activity [12]: 100%
- MIC50 [13]: 0.25 µg/mL (≈ 0.154 µM)
- MIC90 [13]: 0.5 µg/mL (≈ 0.309 µM)
- MIC50 [14]: 0.5 µg/mL (≈ 0.309 µM)
- MIC90 [14]: 0.5 µg/mL (≈ 0.309 µM)
- MIC50 [15]: 0.5 µg/mL (≈ 0.309 µM)
- MIC90 [15]: 1 µg/mL (≈ 0.617 µM)
- Activity [16]: 100%
- Activity [17]: 100%
- Activity [18]: 0%
- Activity [19]: 0%
- Activity [20]: 100%
- MIC [21]: ≤ 0.03 µg/mL
- MIC50 [21]: ≤ 0.03 µg/mL
- MIC90 [21]: 0.06 µg/mL (≈ 0.037 µM)
- Activity [22]: 0%
- MIC50 [23]: 1 µg/mL (≈ 0.617 µM)
- MIC90 [23]: 1 µg/mL (≈ 0.617 µM)
- Activity [24]: 100%
- MIC50 [25]: 0.12 µg/mL (≈ 0.074 µM)
- MIC90 [25]: 0.25 µg/mL (≈ 0.154 µM)
- Activity [26]: 100%
- MIC50 [27]: 0.12 µg/mL (≈ 0.074 µM)
- MIC90 [27]: 0.12 µg/mL (≈ 0.074 µM)
- MIC50 [28]: 0.25 µg/mL (≈ 0.154 µM)
- MIC90 [28]: 0.5 µg/mL (≈ 0.309 µM)
- MIC50 [29]: 0.06 µg/mL (≈ 0.037 µM)
- MIC90 [29]: 0.12 µg/mL (≈ 0.074 µM)
- Activity [30]: 100%
- Activity [31]: 0%

Compound: CC(=O)NC[C@H]1CN(c2ccc(N3CCOCC3)c(F)c2)C(=O)O1 [LINEZOLID]
- Activity [1]: 100%
- Activity [2]: 99.3%
- Activity [32]: 0%
- MIC50 [3]: 2 µg/mL (≈ 5.93 µM)
- MIC90 [3]: 2 µg/mL (≈ 5.93 µM)
- MIC50 [4]: 2 µg/mL (≈ 5.93 µM)
- MIC90 [4]: 2 µg/mL (≈ 5.93 µM)
- Activity [5]: 100%
- Activity [6]: 100%
- MIC [9]: 1 µg/mL (≈ 2.96 µM)
- MIC50 [9]: 1 µg/mL (≈ 2.96 µM)
- MIC90 [9]: 1 µg/mL (≈ 2.96 µM)
- MIC50 [10]: 1 µg/mL (≈ 2.96 µM)
- MIC90 [10]: 1 µg/mL (≈ 2.96 µM)
- MIC50 [11]: 1 µg/mL (≈ 2.96 µM)
- MIC90 [11]: 2 µg/mL (≈ 5.93 µM)
- Activity [33]: 100%
- Activity [12]: 100%
- MIC50 [13]: 2 µg/mL (≈ 5.93 µM)
- MIC90 [13]: 2 µg/mL (≈ 5.93 µM)
- MIC50 [14]: 1 µg/mL (≈ 2.96 µM)
- MIC90 [14]: 2 µg/mL (≈ 5.93 µM)
- MIC50 [15]: 2 µg/mL (≈ 5.93 µM)
- MIC90 [15]: 2 µg/mL (≈ 5.93 µM)
- Activity [16]: 100%
- Activity [17]: 100%
- MIC50 [34]: 4 µg/mL (≈ 11.9 µM)
- MIC90 [34]: > 4 µg/mL
- Activity [18]: 0%
- Activity [19]: 0%
- Activity [20]: 100%
- MIC50 [21]: 1 µg/mL (≈ 2.96 µM)
- MIC90 [21]: 1 µg/mL (≈ 2.96 µM)
- MIC50 [35]: 4 µg/mL (≈ 11.9 µM)
- MIC90 [35]: 4 µg/mL (≈ 11.9 µM)
- Activity [22]: 0%
- MIC50 [23]: 2 µg/mL (≈ 5.93 µM)
- MIC90 [23]: 2 µg/mL (≈ 5.93 µM)
- Activity [24]: 100%
- MIC50 [25]: 1 µg/mL (≈ 2.96 µM)
- MIC90 [25]: 1 µg/mL (≈ 2.96 µM)
- Activity [26]: 100%
- MIC [27]: 1 µg/mL (≈ 2.96 µM)
- MIC50 [27]: 1 µg/mL (≈ 2.96 µM)
- MIC90 [27]: 1 µg/mL (≈ 2.96 µM)
- MIC50 [28]: 1 µg/mL (≈ 2.96 µM)
- MIC90 [28]: 1 µg/mL (≈ 2.96 µM)
- Activity [30]: 100%
- Activity [31]: 0%
